From patent publication US20220348590A1, “CYCLOOXYGENASE-2 INHIBITORS AND USES THEREOF” (The Board Institute, Inc., priority 2019, published 2022)
Like-named read-outs stand apart in the source and are kept apart here.

Target: T1, human recombinant COX2 (hCOX2) (UniProt P35354)
T1 sequence (P35354 1-604): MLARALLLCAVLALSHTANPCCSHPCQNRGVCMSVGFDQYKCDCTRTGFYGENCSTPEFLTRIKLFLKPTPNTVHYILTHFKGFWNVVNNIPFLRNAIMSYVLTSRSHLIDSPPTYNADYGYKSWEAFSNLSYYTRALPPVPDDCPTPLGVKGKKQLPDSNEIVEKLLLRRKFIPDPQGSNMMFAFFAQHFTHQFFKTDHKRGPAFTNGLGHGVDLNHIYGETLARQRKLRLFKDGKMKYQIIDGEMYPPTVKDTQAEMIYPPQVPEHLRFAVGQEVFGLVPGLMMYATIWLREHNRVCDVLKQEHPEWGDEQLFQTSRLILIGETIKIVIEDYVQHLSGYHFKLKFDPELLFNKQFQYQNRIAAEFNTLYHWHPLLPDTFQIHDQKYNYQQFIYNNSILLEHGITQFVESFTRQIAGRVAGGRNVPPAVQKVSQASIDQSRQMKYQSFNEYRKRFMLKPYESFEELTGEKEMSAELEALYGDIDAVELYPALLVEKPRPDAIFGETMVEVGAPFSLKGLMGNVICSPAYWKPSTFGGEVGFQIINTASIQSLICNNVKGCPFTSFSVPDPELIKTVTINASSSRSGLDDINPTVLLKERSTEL
Test: LCMS-based COX2 enzymatic inhibition assay (PGE2 quantification)
Type: biochemical
Set-up: COX2 2 minutes pge2/pge2d4 area ratio Avg; other: 2 minutes; readout pge2/pge2d4 area ratio; average; COX2 2 minutes pge2/pge2d4 area ratio Avg; LLE; average LLE; COX2 2 minutes pge2 area (counts) Avg; readout pge2 area (counts); other: 2 min; "ovine COX2 (oCOX2), human recombinant COX2 (hCOX2)"
Settings: for COX2 2 minutes pge2/pge2d4 area ratio Avg. LLE / COX2 2 minutes pge2 area (counts) Avg. LLE / COX2 10 minutes pge2 area (counts) Avg. LLE: average LLE; for IC50: average
Procedure, shortened: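 PGE2 formed from arachidonic acid (final 5 μM, 2 min) was measured by LC-MS-MS against DMSO controls. Enzyme (oCOX-1 0.1 μg or hCOX2 0.2 μg) with hematin/epinephrine cofactors at pH 8.0 was given 10 min at 37 °C with compound first. Twelve-point curves run three times gave IC50.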

[1] = 2 minutes, readout pge2/pge2d4 area ratio
[2] = 2 minutes, readout pge2/pge2d4 area ratio, read-out: COX2 2 minutes pge2/pge2d4 area ratio Avg. IC50
[3] = 2 minutes, readout pge2 area (counts)
[4] = 2 minutes, readout pge2 area (counts), read-out: COX2 2 minutes pge2 area (counts) Avg. IC50
[5] = 10 minutes, readout pge2 area (counts)
[6] = read-out: COX2 2 minutes pge2/pge2d4 area ratio Avg. IC50 (microM), 2 minutes, readout pge2/pge2d4 area ratio
[7] = 10 minutes, readout pge2 area (counts), read-out: COX2 10 minutes pge2 area (counts) Avg. IC50

COX2 2 minutes pge2/pge2d4 area ratio Avg. LLE [1] | IC50 [2] | COX2 2 minutes pge2 area (counts) Avg. LLE [3] | IC50 [4] | SMILES | COX2 10 minutes pge2 area (counts) Avg. LLE [5] | IC50 [6] | IC50 [7]
2.522 | 1.16 µM | 2.252 | 2.05 µM | CS(=O)(=O)c1ccc(-c2ccc3c(n2)N(Cc2cccs2)C(=O)C3)cc1 [Compound 204] | – | – | –
5.647 | 0.0875 µM | 5.572 | 0.103 µM | COc1ncc(NCc2ccns2)nc1-c1ccc(S(C)(=O)=O)cc1 [Compound 102] | – | – | –
4.3725 | 0.183 µM | 4.235 | 0.239 µM | CS(=O)(=O)c1ccc(-c2cncc(OCc3ccsc3)n2)cc1 [Compound 134] | – | – | –
3.95 | 0.555 µM | 3.961 | 0.514 µM | CS(=O)(=O)c1ccc(-c2cncc(NC3CCCCC3)n2)cc1 [Compound 180] | – | – | –
– | 2.66 µM | – | 3.28 µM | CS(=O)(=O)c1ccc(-n2ccc3ccc(Nc4cccnc4)nc32)cc1 [Compound 238] | – | – | –
– | 0.0686 µM | – | 0.0584 µM | CS(=O)(=O)c1ccc(-n2ncc3ccc(NCc4cccs4)nc32)cc1 [Compound 92] | – | – | –
– | 3.01 µM | – | – | CS(=O)(=O)c1ccc(-c2cc(NCc3ccoc3)ccn2)cc1 [Compound 242] | – | – | –
2.264 | 5.2 µM | – | – | CS(=O)(=O)c1ccc(-c2cccc(C(=O)Nc3cccs3)n2)cc1 [Compound 281] | – | – | –
3.137 | 2.45 µM | 3.14 | 2.42 µM | CS(=O)(=O)c1ccc(-c2cc(OCc3cccs3)cnn2)cc1 [Compound 234] | – | – | –
5.05 | 0.276 µM | 5.0953 | 0.249 µM | CS(=O)(=O)c1ccc(-c2cccc(NCc3ccon3)n2)cc1 [Compound 150] | – | – | –
2.087 | 2.96 µM | 1.8776 | 4.36 µM | C[C@H](Nc1cccc(-c2ccc(S(C)(=O)=O)cc2)n1)c1ccoc1 (single isomer, unassigned) [Compound 241] | – | – | –
4.828 | 1.94 µM | 4.821 | 1.84 µM | CS(=O)(=O)c1ccc(-c2cncc(NC[C@@H]3CCCO3)n2)cc1 [Compound 224] | – | – | –
– | – | – | – | COc1cc(S(C)(=O)=O)ccc1-c1cccc(NCc2ccoc2)n1 [Compound 297] | – | 5.2 µM | –
2.229 | 2.41 µM | 2.107 | 2.35 µM | CS(=O)(=O)c1ccc(-c2cncc(OCc3cccs3)c2)cc1 [Compound 232] | – | – | –
4.558 | 0.167 µM | 4.582 | 0.126 µM | COCCOc1ncc(NCc2cccs2)nc1-c1ccc(S(C)(=O)=O)cc1 [Compound 133] | – | – | –
2.722 | 0.0406 µM | 2.834 | 0.0288 µM | CS(=O)(=O)c1ccc(-c2cccc(OCc3ccc(Cl)s3)n2)cc1 [Compound 69] | – | – | –
3.984 | 0.0454 µM | 3.887 | 0.0623 µM | CC(C)Oc1ncc(NCc2cccs2)nc1-c1ccc(S(C)(=O)=O)cc1 [Compound 75] | – | – | –

COX2 2 minutes pge2/pge2d4 area ratio Avg. LLE [1] | IC50 [2] | COX2 2 minutes pge2 area (counts) Avg. LLE [3] | IC50 [4] | SMILES | COX2 10 minutes pge2 area (counts) Avg. LLE [5] | IC50 [6] | IC50 [7]
2.588 | 0.887 µM | 2.528 | 1.02 µM | COc1ncc(NCc2cccs2)cc1-c1ccc(S(C)(=O)=O)cc1 [Compound 196] | – | – | –
3.544 | 1.54 µM | 3.646 | 1.22 µM | CS(=O)(=O)c1ccc(-c2cccc(NCc3cnco3)n2)cc1 [Compound 216] | – | – | –
5.678 | 0.566 µM | 5.655 | 0.596 µM | COc1ncc(NCc2ccno2)nc1-c1ccc(S(C)(=O)=O)cc1 [Compound 183] | – | – | –
3.623 | 0.61 µM | 3.623 | 0.572 µM | CS(=O)(=O)c1ccc(-c2cccc(NCc3cc[nH]c3)n2)cc1 [Compound 185] | – | – | –
4.687 | 0.315 µM | 4.726 | 0.295 µM | CS(=O)(=O)c1ccc(-c2cncc(SC[C@H]3CCCO3)n2)cc1 (single isomer, unassigned) [Compound 154] | – | – | –
3.47 | 2.04 µM | 3.565 | 1.79 µM | CS(=O)(=O)c1ccc(-c2cncc(SCc3cnco3)n2)cc1 [Compound 226] | – | – | –
4.753 | 2.56 µM | 4.8121 | 2.23 µM | Cn1cc(CNc2cncc(-c3ccc(S(C)(=O)=O)cc3)n2)cn1 [Compound 237] | – | – | –
– | – | – | – | CSc1ccc(-c2cccc(NCc3ccoc3)n2)cc1 [Compound 295] | – | 5.2 µM | –
4.174 | 0.447 µM | 4.01 | 0.52 µM | CS(=O)(=O)c1ccc(-c2cncc(OCc3ccccc3)n2)cc1 [Compound 172] | – | – | –
4.383 | 2.38 µM | 4.367 | 2.48 µM | COc1ncc(-c2ccc(S(C)(=O)=O)cc2)nc1NCc1ccncc1 [Compound 230] | – | – | –
4.029 | 0.11 µM | 4.185 | 0.0615 µM | Cc1ccc(CNc2cccc(-c3ccc(S(C)(=O)=O)cc3)n2)o1 [Compound 117] | – | – | –
3.645 | 0.0839 µM | 3.594 | 0.106 µM | COCc1ccc(NCc2cccs2)nc1-c1ccc(S(C)(=O)=O)cc1 [Compound 100] | – | – | –
2.819 | 1.01 µM | 2.726 | 1.38 µM | CN(Cc1ccco1)c1cccc(-c2ccc(S(C)(=O)=O)cc2)n1 [Compound 200] | – | – | –
2.526 | 3.44 µM | 2.379 | 4.08 µM | C[C@@H](Oc1cncc(-c2ccc(S(C)(=O)=O)cc2)n1)c1cccs1 (single isomer, unassigned) [Compound 249] | – | – | –
4.384 | 2.06 µM | 4.493 | 1.6 µM | COc1ncc(NCc2cnco2)nc1-c1ccc(S(C)(=O)=O)cc1 [Compound 227] | – | – | –
3.208 | 0.332 µM | 3.204 | 0.327 µM | COc1nc(NCc2cccs2)cc(-c2ccc(S(C)(=O)=O)cc2)n1 [Compound 156] | 4.189 | – | 0.0355 µM

SMILES | COX2 2 minutes pge2/pge2d4 area ratio Avg. LLE [1] | IC50 [2] | COX2 2 minutes pge2 area (counts) Avg. LLE [3] | IC50 [4] | COX2 10 minutes pge2 area (counts) Avg. LLE [5] | IC50 [6] | IC50 [7]
CC(C)COc1cncc(-c2ccc(S(C)(=O)=O)cc2)n1 [Compound 293] | 3.394 | – | 3.394 | – | 3.394 | 5.2 µM | –
CS(=O)(=O)c1ccc(-c2cncc(N3CCCC3)n2)cc1 [Compound 326] | – | – | 4.034 | – | 4.754 | 5.2 µM | 0.99 µM
CCCCOc1cncc(-c2ccc(S(C)(=O)=O)cc2)n1 [Compound 280] | 3.204 | – | – | – | 4.508 | 5.2 µM | 0.258 µM
Cc1coc(C(=O)Nc2cccc(-c3ccc(S(C)(=O)=O)cc3)n2)c1 [Compound 276] | 2.554 | – | 2.659 | 4.08 µM | – | 5.2 µM | –
CS(=O)(=O)c1ccc(-c2cncc(OC[C@@H]3CCCO3)n2)cc1 [Compound 275] | 4.054 | – | 4.054 | – | – | 5.2 µM | –
